{"source": "patent EP0037495A1", "about": "“Pyrimidyl quinazolines, process for their preparation and pharmaceutical compositions containing them” (CASSELLA Aktiengesellschaft, priority 1980, dated 1981)", "tested_on": "normotonen narkotisierten Ratte", "test": "Blood pressure measurement in the normotensive anaesthetised rat", "format": "in vivo", "conditions": "mean; for WD min x̄ (Wirkungsdauer): time from onset of change until return to baseline", "procedure": "1. Blutdruckmessung an der normotonen narkotisierten Ratte\nMännliche IVANOVAS-Ratten (300 - 340 g) des Stammes SIV 50 wurden durch Applikation von 66 mg/kg a-Chloralose (1,1 % Lösung, 0,6 ml/100 g) und 20 mg:kg Aprobarbital in die Schwanzvene narkotisiert. Die Trachea wurde kannuliert um die Spontanatmung zu erleichtern. Die Messung des Blutdruckes erfolgte blutig über einen in die Rechte A. carotis eingebundenen PE-Schlauch auf konventionelle Weise. Mittels eines Dreiwegehahnes konnte dieser PE-Schlauch zur i.a.-Applikation der Prüfsubstanzen benutzt werden, wobei jeweils ein Volumen von 0,1 ml injiziert wurde. Durch Nachspülen mit 0,9 % NaCl gelangten die Substanzen über die Vertebralarterie auch in Richtung Zentralnervensystem bevor die Verteilung im allgemeinen Kreislauf erfolgte.\nZahlenmäßig ausgewertet wurde die maximale systolische und diastolische Blutdrucksenkung sowie die maximale Änderung der Herzfrequenz. Als Wirkdauer galt die Zeit vom Eintritt der Veränderung bis zum Erreichen des Ausgangswertes.", "data": [{"compound": "COc1cc2nc(N3CCN(C(=O)c4ccco4)CC3)nc(N)c2cc1OC", "note": "[Prazosin]", "values": [{"measurement": "HF Δ s/min x̄", "setting": "maximal change of heart rate, dose 0.1 mg/kg i.a.", "result": 0, "unit": "s/min"}, {"measurement": "WD min x̄ (Wirkungsdauer)", "setting": "dose 0.1 mg/kg i.a.", "result": 60, "unit": "min"}]}, {"compound": "COc1cc2nc(N3CCN(c4c([N+](=O)[O-])c(=O)n(C)c(=O)n4C)CC3)nc(N)c2cc1OC", "note": "[*]", "values": [{"measurement": "WD min x̄ (Wirkungsdauer)", "setting": "dose 0.01 mg/kg i.a.", "result": 36, "unit": "min"}]}]}
